In US7960131B2, “Functional genomic pore assay for mixed cell populations” (Wisconsin Alumni Research Foundation, priority 2003, dated 2011):
Changes are numbered by the printed parent chain. Where “and” joins values, the source holds several entries; their conditions need not be identical. Identical values can stand only once.

Columns and labels:
Type in all cases: cell-based
[1] = biological target: T1, P2X7 (Homo sapiens, UniProt Q99572); assay: YO-PRO-1 plate assay of P2X7 agonists with astrocytoma cell line 1321N1; details: for YO-PRO-1 fluorescence (485/20, 528/20), single well: 5 × 10^4 1321N1 cells; for YO-PRO-1 fluorescence, average of duplicate wells: 1321N1 cells, agent + YOPRO;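 on all read-outs here: dye uptake read after 20 min agonist exposure with YO-PRO-1 present, unbound dye removed by washing before reading in a fluorescence plate reader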
T1 construct: host or cells: astrocytoma cell line (the earlier reading names it 1321N1)
T1 sequence (Q99572 1-595): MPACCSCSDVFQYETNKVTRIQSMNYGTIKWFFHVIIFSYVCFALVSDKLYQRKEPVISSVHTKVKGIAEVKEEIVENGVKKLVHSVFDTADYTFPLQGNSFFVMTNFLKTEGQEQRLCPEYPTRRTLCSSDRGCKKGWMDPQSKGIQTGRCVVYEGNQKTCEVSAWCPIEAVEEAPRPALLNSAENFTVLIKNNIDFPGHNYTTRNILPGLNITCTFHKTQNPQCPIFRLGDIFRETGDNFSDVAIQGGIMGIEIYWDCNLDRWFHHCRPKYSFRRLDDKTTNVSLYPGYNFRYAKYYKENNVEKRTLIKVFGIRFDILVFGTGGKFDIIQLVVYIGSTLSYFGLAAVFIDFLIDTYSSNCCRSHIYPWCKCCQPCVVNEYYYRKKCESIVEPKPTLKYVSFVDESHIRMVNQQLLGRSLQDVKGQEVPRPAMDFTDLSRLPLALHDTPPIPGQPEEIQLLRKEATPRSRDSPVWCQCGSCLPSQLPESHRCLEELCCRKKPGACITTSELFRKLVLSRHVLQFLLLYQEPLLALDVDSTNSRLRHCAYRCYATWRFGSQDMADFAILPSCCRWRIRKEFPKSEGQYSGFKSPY

[2] = biological target: T2, P2X7-G150R (Homo sapiens, UniProt Q99572, G150R); assay: YO-PRO-1 uptake fluorimetric plate assay in transfected HEK 293 cells, P2X7-G150R; details: G150R (G474A) mutant, also in more permissive buffer lacking NaCl
T2 construct: expressed in transfected cells
T2 sequence (Q99572 1-595 G150R): T1 sequence (Q99572 1-595) with G150R
Source text: (§1) Recombinant Expression and Functional Characterization of Variant P2RX7 Alleles. A pcDNA3 expression vector containing a cloned human P2RX7 cDNA associated with normal pore activity was subjected to point mutagenesis using the Quick Change Kit (Stratagene Inc., city, state) to create the variants P2X7-G150R, P2X7-Q460R, and P2X7-E496A. HEK 293 cells were transfected by the Superfect liposomal method and stable populations were selected by G418 resistance. Expression of P2X7 mRNA and protein in unstimulated transfected HEK cell cultures was verified by RT-PCR and immunoblotting as previously described.
(§2) YO-PRO-1 fluorescence was measured by a Synergy-HT fluorescent plate reader (Biotek, city, state) using X±Y nm excitation and A±B emission filters.

[3] = biological target: T3, P2X7-E496A (Homo sapiens, UniProt Q99572, E496A); assay: YO-PRO-1 uptake fluorimetric plate assay in transfected HEK 293 cells, P2X7-E496A; details: E496A variant
T3 construct: expressed in transfected cells
T3 sequence (Q99572 1-595 E496A): T1 sequence (Q99572 1-595) with E496A
Source text: as §1, §2

[4] = biological target: T4, P2X7-Q460R (Homo sapiens, UniProt Q99572, Q460R); assay: YO-PRO-1 uptake fluorimetric plate assay in transfected HEK 293 cells, P2X7-Q460R
T4 construct: expressed in transfected cells
T4 sequence (Q99572 1-595 Q460R): T1 sequence (Q99572 1-595) with Q460R
Source text: as §1, §2

## 2′-3′-O-(4-benzoylbenzoyl)-adenosine 5′-triphosphate [Bz-ATP]
[1]; agent 1 μM + YOPRO
  YO-PRO-1 fluorescence (485/20, 528/20), single well: 98 and 89
[1]; agent 3 μM + YOPRO
  YO-PRO-1 fluorescence (485/20, 528/20), single well: 188
[1]; agent 10 μM + YOPRO
  YO-PRO-1 fluorescence (485/20, 528/20), single well: 213
[1]; agent 30 μM + YOPRO
  YO-PRO-1 fluorescence (485/20, 528/20), single well: 217
[1]; agent 100 μM + YOPRO
  YO-PRO-1 fluorescence (485/20, 528/20), single well: 223 and 214
[1]; agent 300 μM + YOPRO
  YO-PRO-1 fluorescence (485/20, 528/20), single well: 220 and 232
[1]; 1 uM
  YO-PRO-1 fluorescence, average of duplicate wells: 93.5
[1]; 3 uM
  YO-PRO-1 fluorescence, average of duplicate wells: 188
[2]
  agonist stimulated increase in YO-PRO-1 fluorescence: loss of pore function
[2]; listed as BzATP
  agonist stimulated increase in YO-PRO-1 fluorescence: no agonist stimulated increase in fluorescence
[3]; potassium glutamate buffer
  increase in YO-PRO-1 fluorescence: approximately half-maximal increase
[3]; saline-containing buffers
  agonist-inducible pore activity: lacking agonist-inducible pore activity
[4]
  EC50: ~30 µM
  increase in YO-PRO-1 fluorescence over baseline: 8 fold
